Consider 21 compounds from patent US10781184B2, “Substituted benzazinones as antibacterial compounds” (GlaxoSmithKline Intellectual Property Development Limited, priority 2015, dated 2020).

Holding throughout (assay): Minimum Inhibitory Concentration Assay (broth microdilution, CLSI)
Holding throughout (type): cell-based

Assay [1] deals with E. coli 7623. The following applies: Escherichia coli; strain 7623, broth microdilution; read-out: E. coli 7623 MIC. As for the experimental part: (§1) Methods for dilution Antimicrobial Susceptibility TestS for Bacteria that Grow Aerobically; Approved Standard-Ninth Edition; M7-A9, Vol. 32 No. 2, Clinical and Laboratory Standards Institute, Wayne, Pa.; January 2012.
(§2) Performance Standards for Antimicrobial Susceptibility Testing; Twenty-Second Informational Supplement; M100-S22 Vol. 32 No. 3; Clinical and Laboratory Standards Institute, Wayne, Pa., January 2012.
(§3) Broth microdilution was performed in accordance with the CLSI recommended procedures for aerobic bacteria [CLSI, 2012].
(§4) Comparator compound stock solutions were prepared as recommended by CLSI [CLSI, 2012]. The stock solutions of novel GSK compounds were prepared at 512 mcg/mL by dissolving the compounds in dimethyl sulfoxide (DMSO) and diluting 1:10 with sterile water. The 512 mcg/mL stock was further serially diluted in the recommended broth media for the organisms being tested. Final DMSO concentration in test wells was less than 1%.
(§5) Microtitre plates were prepared using the Microlab STAR™ (Hamilton Co., Reno, Nev.) to add media (50 μL) and the Microlab AT Plus system (Hamilton Co., Reno, Nev.) to serially dilute the compounds (final concentration range 0.125 to 128 mcg/mL) and to add inoculum. A positive growth control well containing medium and the test isolate was included on each microtitre plate. Ten microliters of the test medium from the positive growth control well was plated to determine the purity of each test isolate. A microtitre mirror reader (Cooke Instruments, Ltd., England) was used to assist in determining the microdilution MIC endpoints. The MIC was determined as the lowest concentration of compound that inhibited visible growth of the organism.
For orientation: In broth dilution the organism is exposed to a series of concentrations in liquid medium.

The subject of assay [2] is K. pneumoniae 1161486. The following applies: Klebsiella pneumoniae; strain 1161486, broth microdilution; read-out: K. pneumoniae 1161486 MIC. As for the experimental part: as §1, §2, §3, §4, §5
In assay [3] the test system is P. aeruginosa PA01. The following applies: Pseudomonas aeruginosa; strain PA01, broth microdilution; read-out: P. aeruginosa PA01 MIC. The method, then: as §1, §2, §3, §4, §5

As a reminder, the MIC is the lowest concentration found to suppress growth.

In brackets after ≈: the same amount, converted by molar mass.

Regarding `CONCc1ccc(-c2ccc3c(=O)n(CC[C@](C)(C(=O)NO)S(C)(=O)=O)cnc3c2)c(F)c1` [Example 50, (2R)-4-(7-{2-fluoro-4-[(methoxyamino)methyl]phenyl}-4-oxo-3,4-dihydroquinazolin-3-yl)-N-hydroxy-2-methanesulfonyl-2-methylbutanamide], the results for the MIC in assay [1], in assay [2] and in assay [3] were 0.125 µg/mL (≈ 0.254 µM), 0.5 µg/mL (≈ 1.02 µM) and 2 µg/mL (≈ 4.06 µM), respectively.

As to `CCONCc1ccc(-c2ccc3c(=O)n(CC[C@](C)(C(=O)NO)S(C)(=O)=O)cnc3c2)c(F)c1` [Example 51, (2R)-4-(7-{4-[(ethoxyamino)methyl]-2-fluorophenyl}-4-oxo-3,4-dihydroquinazolin-3-yl)-N-hydroxy-2-methanesulfonyl-2-methylbutanamide], the MIC amounted to 0.125 µg/mL (≈ 0.247 µM) in assay [1], 0.5 µg/mL (≈ 0.987 µM) in assay [2] and 2 µg/mL (≈ 3.95 µM) in assay [3].

With `CON(C)Cc1ccc(-c2ccc3c(=O)n(CC[C@](C)(C(=O)NO)S(C)(=O)=O)cnc3c2)cc1` [Example 52, (2R)—N-hydroxy-2-methanesulfonyl-4-[7-(4-{[methoxy(methyl)amino]methyl}phenyl)-4-oxo-3,4-dihydroquinazolin-3-yl]-2-methylbutanamide], the minimal inhibitory concentration (MIC) in assay [1] was found to be 0.063 µg/mL (≈ 0.129 µM); in assay [2], 0.25 µg/mL (≈ 0.512 µM); in assay [3] it was 8 µg/mL (≈ 16.4 µM).

As to `COc1ccc(-c2ccc3c(=O)n(CC[C@](C)(C(=O)NO)S(C)(=O)=O)ccc3c2)cc1` [Example 53, (2R)—N-hydroxy-2-methanesulfonyl-4-[6-(4-methoxyphenyl)-1-oxo-1,2-dihydroisoquinolin-2-yl]-2-methylbutanamide], the results for the MIC in assay [1], in assay [2] and in assay [3] were below 0.03 µg/mL, 0.25 µg/mL (≈ 0.562 µM) and 0.5 µg/mL (≈ 1.12 µM), respectively.

Take `Cc1ccc(-c2ccc3c(=O)n(CC[C@](C)(C(=O)NO)S(C)(=O)=O)ccc3c2)cc1` [Example 54, (2R)—N-hydroxy-2-methanesulfonyl-2-methyl-4-[6-(4-methylphenyl)-1-oxo-1,2-dihydroisoquinolin-2-yl]butanamide]: the MIC is below 0.03 µg/mL in assay [1], 0.5 µg/mL (≈ 1.17 µM) in assay [2] and 1 µg/mL (≈ 2.33 µM) in assay [3].

Consider `COc1ccc(-c2ccc3c(=O)n(CC[C@](C)(C(=O)NO)S(C)(=O)=O)ccc3c2)c(F)c1` [Example 55, (2R)-4-[6-(2-fluoro-4-methoxyphenyl)-1-oxo-1,2-dihydroisoquinolin-2-yl]-N-hydroxy-2-methanesulfonyl-2-methylbutanamide], for which the minimal inhibitory concentration (MIC) in assay [1] was below 0.03 µg/mL; in assay [2], 0.063 µg/mL (≈ 0.136 µM); in assay [3], 1 µg/mL (≈ 2.16 µM).

Turning to `C[C@@](CCn1ccc2cc(-c3ccccc3)ccc2c1=O)(C(=O)NO)S(C)(=O)=O` [Example 56, (2R)—N-hydroxy-2-methanesulfonyl-2-methyl-4-(1-oxo-6-phenyl-1,2-dihydroisoquinolin-2-yl)butanamide], the MIC in assay [1] stood at 0.063 µg/mL (≈ 0.152 µM); in assay [2], 0.125 µg/mL (≈ 0.302 µM); in assay [3], 0.5 µg/mL (≈ 1.21 µM).

Regarding `C[C@@](CCn1ccc2cc(-c3ccc4c(c3)COC4)ccc2c1=O)(C(=O)NO)S(C)(=O)=O` [Example 57, (2R)-4-[6-(1,3-dihydro-2-benzofuran-5-yl)-1-oxo-1,2-dihydroisoquinolin-2-yl]-N-hydroxy-2-methanesulfonyl-2-methylbutanamide], the MIC in assay [1] turned out to be 0.063 µg/mL (≈ 0.138 µM); in assay [2], 0.25 µg/mL (≈ 0.548 µM); in assay [3] it was 2 µg/mL (≈ 4.38 µM).

In the case of `Cc1cnc(-c2ccc3c(=O)n(CC[C@](C)(C(=O)NO)S(C)(=O)=O)ccc3c2)s1` [Example 58, (2R)—N-hydroxy-2-methanesulfonyl-2-methyl-4-[6-(5-methyl-1,3-thiazol-2-yl)-1-oxo-1,2-dihydroisoquinolin-2-yl]butanamide], the MIC in assay [1] amounted to 0.063 µg/mL (≈ 0.145 µM); in assay [2] it was 1 µg/mL (≈ 2.3 µM); in assay [3], 4 µg/mL (≈ 9.18 µM).

As to `C[C@@](CCn1ccc2cc(-c3ccc(C#N)cc3F)ccc2c1=O)(C(=O)NO)S(C)(=O)=O` [Example 59, (2R)-4-[6-(4-cyano-2-fluorophenyl)-1-oxo-1,2-dihydroisoquinolin-2-yl]-N-hydroxy-2-methanesulfonyl-2-methylbutanamide], the MIC was 0.063 µg/mL (≈ 0.138 µM) in assay [1], 0.125 µg/mL (≈ 0.273 µM) in assay [2] and 0.5 µg/mL (≈ 1.09 µM) in assay [3].

For `COc1ccc(-c2ccc3c(=O)n(CC[C@](C)(C(=O)NO)S(C)(=O)=O)ccc3c2)cn1.Cl` [Example 60, (2R)—N-hydroxy-2-methanesulfonyl-4-[6-(6-methoxypyridin-3-yl)-1-oxo-1,2-dihydroisoquinolin-2-yl]-2-methylbutanamide], the MIC in assay [1] is below 0.03 µg/mL; in assay [2], 0.5 µg/mL; in assay [3], 0.5 µg/mL.

With `CN(C)c1ccc(-c2ccc3c(=O)n(CC[C@](C)(C(=O)NO)S(C)(=O)=O)ccc3c2)cc1` [Example 61, (2R)-4-{6-[4-(dimethylamino)phenyl]-1-oxo-1,2-dihydroisoquinolin-2-yl}-N-hydroxy-2-methanesulfonyl-2-methylbutanamide], the MIC was below 0.03 µg/mL in assay [1], 1 µg/mL (≈ 2.19 µM) in assay [2] and above 32 µg/mL in assay [3].

Regarding `CN(C)c1ccc(-c2ccc3c(=O)n(CC[C@](C)(C(=O)NO)S(C)(=O)=O)ccc3c2)cn1` [Example 62, (2R)-4-{6-[6-(dimethylamino)pyridin-3-yl]-1-oxo-1,2-dihydroisoquinolin-2-yl}-N-hydroxy-2-methanesulfonyl-2-methylbutanamide], the figures for the MIC in assay [1], in assay [2] and in assay [3] were 0.125 µg/mL (≈ 0.273 µM), 0.5 µg/mL (≈ 1.09 µM) and 8 µg/mL (≈ 17.4 µM), respectively.

Take `CN(C)c1ncc(-c2ccc3c(=O)n(CC[C@](C)(C(=O)NO)S(C)(=O)=O)ccc3c2)cn1` [Example 63, (2R)-4-{6-[2-(dimethylamino)pyrimidin-5-yl]-1-oxo-1,2-dihydroisoquinolin-2-yl}-N-hydroxy-2-methanesulfonyl-2-methylbutanamide]: the MIC in assay [1] is 0.125 µg/mL (≈ 0.272 µM); in assay [2], 1 µg/mL (≈ 2.18 µM); in assay [3], 4 µg/mL (≈ 8.7 µM).

Consider `CN(C)Cc1ccc(-c2ccc3c(=O)n(CC[C@](C)(C(=O)NO)S(C)(=O)=O)ccc3c2)c(F)c1` [Example 65, (2R)-4-(6-{4-[(dimethylamino)methyl]-2-fluorophenyl}-1-oxo-1,2-dihydroisoquinolin-2-yl)-N-hydroxy-2-methanesulfonyl-2-methylbutanamide], for which the minimal inhibitory concentration (MIC) came out at 0.25 µg/mL (≈ 0.511 µM) in assay [1], 0.5 µg/mL (≈ 1.02 µM) in assay [2] and 4 µg/mL (≈ 8.17 µM) in assay [3].

As to `COCCN(C)Cc1ccc(-c2ccc3c(=O)n(CC[C@](C)(C(=O)NO)S(C)(=O)=O)ccc3c2)c(F)c1` [Example 66, (2R)-4-[6-(2-fluoro-4-{[(2-methoxyethyl)(methyl)amino]methyl}phenyl)-1-oxo-1,2-dihydroisoquinolin-2-yl]-N-hydroxy-2-methanesulfonyl-2-methylbutanamide], the MIC was 0.063 µg/mL (≈ 0.118 µM) in assay [1], 0.125 µg/mL (≈ 0.234 µM) in assay [2] and 1 µg/mL (≈ 1.87 µM) in assay [3].

Turning to `COCCNCc1ccc(-c2ccc3c(=O)n(CC[C@](C)(C(=O)NO)S(C)(=O)=O)ccc3c2)c(F)c1` [Example 67, (2R)-4-[6-(2-fluoro-4-{[(2-methoxyethyl)amino]methyl}phenyl)-1-oxo-1,2-dihydroisoquinolin-2-yl]-N-hydroxy-2-methanesulfonyl-2-methylbutanamide], the MIC in assay [1] amounted to 0.125 µg/mL (≈ 0.241 µM); in assay [2], 1 µg/mL (≈ 1.92 µM); in assay [3], 1 µg/mL (≈ 1.92 µM).

As for `COCCCN(C)Cc1ccc(-c2ccc3c(=O)n(CC[C@](C)(C(=O)NO)S(C)(=O)=O)ccc3c2)c(F)c1.Cl` [Example 70, (2R)-4-[6-(2-fluoro-4-{[(3-methoxypropyl)(methyl)amino]methyl}phenyl)-1-oxo-1,2-dihydroisoquinolin-2-yl]-N-hydroxy-2-methanesulfonyl-2-methylbutanamide], the values for the MIC in assay [1], in assay [2] and in assay [3] were 0.125 µg/mL, 0.25 µg/mL and 2 µg/mL, respectively.

Consider `COCCNCc1ccc(-c2ccc3c(=O)n(CC[C@](C)(C(=O)NO)S(C)(=O)=O)ccc3c2)c(F)c1F` [Example 71, (R)-4-(6-(2,3-difluoro-4-(((2-methoxyethyl)amino)methyl)phenyl)-1-oxoisoquinolin-2(1H)-yl)-N-hydroxy-2-methyl-2-(methylsulfonyl)butanamide], for which the minimum inhibitory concentration (MIC) amounted to 0.063 µg/mL (≈ 0.117 µM) in assay [1], 0.5 µg/mL (≈ 0.93 µM) in assay [2] and 0.5 µg/mL (≈ 0.93 µM) in assay [3].

Consider `CC(C)OCCNCc1ccc(-c2ccc3c(=O)n(CC[C@](C)(C(=O)NO)S(C)(=O)=O)ccc3c2)c(F)c1.Cl` [Example 73, (2R)-4-{6-[2-fluoro-4-({[2-(propan-2-yloxy)ethyl]amino}methyl)phenyl]-1-oxo-1,2-dihydroisoquinolin-2-yl}-N-hydroxy-2-methanesulfonyl-2-methylbutanamide], for which the MIC in assay [1] came to 0.25 µg/mL; in assay [2] it was 0.5 µg/mL; in assay [3], 2 µg/mL.

Take `CN(CCO)Cc1ccc(-c2ccc3c(=O)n(CC[C@](C)(C(=O)NO)S(C)(=O)=O)ccc3c2)c(F)c1.O=C(O)C(F)(F)F` [Example 74, (2R)-4-[6-(2-fluoro-4-{[(2-hydroxyethyl)(methyl)amino]methyl}phenyl)-1-oxo-1,2-dihydroisoquinolin-2-yl]-N-hydroxy-2-methanesulfonyl-2-methylbutanamide]: the MIC in assay [1] came out at 0.25 µg/mL; in assay [2], 0.5 µg/mL; in assay [3], 1 µg/mL.
